Assay: xn = mol fraction of the nth substance listed
Settings: Liquid, Gas absorption technique

## CCn1cc[n+](C)c1.O=S(=O)([N-]S(=O)(=O)C(F)(F)F)C(F)(F)F + O=C=O
303.15 K, 111.3 kPa, x2 = 0
  binary diffusion coefficient: 6.15e-10 m2/s
313.15 K, 113.7 kPa, x2 = 0
  binary diffusion coefficient: 7.22e-10 m2/s
323.15 K, 108.4 kPa, x2 = 0
  binary diffusion coefficient: 9.52e-10 m2/s
333.15 K, 113.2 kPa, x2 = 0
  binary diffusion coefficient: 1.19e-09 m2/s
343.15 K, 113.7 kPa, x2 = 0
  binary diffusion coefficient: 1.56e-09 m2/s

## Cn1cc[n+](CCO)c1.O=S(=O)([N-]S(=O)(=O)C(F)(F)F)C(F)(F)F + O=C=O
303.15 K, 106.2 kPa, x2 = 0
  binary diffusion coefficient: 1.31e-10 m2/s
313.15 K, 109.9 kPa, x2 = 0
  binary diffusion coefficient: 2.67e-10 m2/s
323.15 K, 111.2 kPa, x2 = 0
  binary diffusion coefficient: 3.97e-10 m2/s

## Cn1cc[n+](CCO)c1.O=S(=O)([N-]S(=O)(=O)C(F)(F)F)C(F)(F)F + S
303.15 K, 111.7 kPa, x2 = 0
  binary diffusion coefficient: 2.07e-10 m2/s
313.15 K, 113.9 kPa, x2 = 0
  binary diffusion coefficient: 3.35e-10 m2/s
323.15 K, 114.5 kPa, x2 = 0
  binary diffusion coefficient: 5.51e-10 m2/s

## Cn1cc[n+](CCO)c1.O=S(=O)([O-])C(F)(F)F + S
303.15 K, 107 kPa, x2 = 0
  binary diffusion coefficient: 2.28e-10 m2/s
313.15 K, 109.6 kPa, x2 = 0
  binary diffusion coefficient: 2.93e-10 m2/s
323.15 K, 113.9 kPa, x2 = 0
  binary diffusion coefficient: 3.66e-10 m2/s

## Cn1cc[n+](CCO)c1.F[P-](F)(F)(F)(F)F [3-(2-hydroxyethyl)-1-methylimidazolium hexafluorophosphate] + O=C=O
303.15 K, 105.6 kPa, x2 = 0
  binary diffusion coefficient: 1.39e-10 m2/s
313.15 K, 109.3 kPa, x2 = 0
  binary diffusion coefficient: 2.15e-10 m2/s
323.15 K, 110.6 kPa, x2 = 0
  binary diffusion coefficient: 2.7e-10 m2/s

## Cn1cc[n+](CCO)c1.F[P-](F)(F)(F)(F)F [3-(2-hydroxyethyl)-1-methylimidazolium hexafluorophosphate] + S
303.15 K, 111.3 kPa, x2 = 0
  binary diffusion coefficient: 1.55e-10 m2/s
313.15 K, 113.7 kPa, x2 = 0
  binary diffusion coefficient: 2.37e-10 m2/s
323.15 K, 108.4 kPa, x2 = 0
  binary diffusion coefficient: 3.74e-10 m2/s

## S [hydrogen sulfide] + CCn1cc[n+](C)c1.O=S(=O)([N-]S(=O)(=O)C(F)(F)F)C(F)(F)F
303.15 K, 109.8 kPa, x1 = 0
  binary diffusion coefficient: 7.98e-10 m2/s
313.15 K, 108.6 kPa, x1 = 0
  binary diffusion coefficient: 9.06e-10 m2/s
323.15 K, 109.4 kPa, x1 = 0
  binary diffusion coefficient: 1.17e-09 m2/s

From the NIST ThermoML archive (doi:10.1016/j.jct.2019.02.022)
